Where two headings read alike, the source gives them in different places.
What was measured:
EPHB1 = target: T1, EPHB1 (Homo sapiens, UniProt P54762); assay: KINOMEscan ScanTK; format: binding; settings: EPHB1
T1 construct: purchased Eurofins DiscoverX KINOMEscan (scanTK)
T1 sequence (P54762 18-984): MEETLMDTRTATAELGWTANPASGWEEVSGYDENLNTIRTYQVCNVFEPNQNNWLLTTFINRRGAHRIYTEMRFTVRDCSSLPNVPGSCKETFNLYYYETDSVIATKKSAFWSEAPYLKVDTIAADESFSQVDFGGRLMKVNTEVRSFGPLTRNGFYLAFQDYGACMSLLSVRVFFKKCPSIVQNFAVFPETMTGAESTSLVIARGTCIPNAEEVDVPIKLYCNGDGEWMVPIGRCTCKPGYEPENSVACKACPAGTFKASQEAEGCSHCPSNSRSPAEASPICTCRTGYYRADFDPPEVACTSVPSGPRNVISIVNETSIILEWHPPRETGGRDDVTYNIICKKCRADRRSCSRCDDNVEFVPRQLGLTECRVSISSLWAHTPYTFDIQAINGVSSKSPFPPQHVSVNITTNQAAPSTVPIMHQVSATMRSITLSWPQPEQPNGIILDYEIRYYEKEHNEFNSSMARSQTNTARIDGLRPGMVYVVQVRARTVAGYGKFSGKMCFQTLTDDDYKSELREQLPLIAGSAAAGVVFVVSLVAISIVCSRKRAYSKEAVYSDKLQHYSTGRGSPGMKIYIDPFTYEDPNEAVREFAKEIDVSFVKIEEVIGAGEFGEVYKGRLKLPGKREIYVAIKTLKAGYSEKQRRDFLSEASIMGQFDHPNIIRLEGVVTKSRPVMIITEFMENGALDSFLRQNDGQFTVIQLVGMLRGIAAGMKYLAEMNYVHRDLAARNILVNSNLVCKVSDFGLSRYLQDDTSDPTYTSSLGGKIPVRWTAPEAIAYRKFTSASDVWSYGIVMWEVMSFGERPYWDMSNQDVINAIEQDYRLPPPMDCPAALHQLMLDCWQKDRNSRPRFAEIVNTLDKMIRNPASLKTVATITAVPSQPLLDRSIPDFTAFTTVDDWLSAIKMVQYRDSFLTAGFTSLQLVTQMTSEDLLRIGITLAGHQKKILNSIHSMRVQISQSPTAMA

MET(M1250T) = target: T2, MET(M1250T) (Homo sapiens, UniProt P08581, M1250T); assay: KINOMEscan ScanTK; format: binding
T2 construct: purchased Eurofins DiscoverX KINOMEscan (scanTK)
T2 sequence (P08581 25-1390 M1250T): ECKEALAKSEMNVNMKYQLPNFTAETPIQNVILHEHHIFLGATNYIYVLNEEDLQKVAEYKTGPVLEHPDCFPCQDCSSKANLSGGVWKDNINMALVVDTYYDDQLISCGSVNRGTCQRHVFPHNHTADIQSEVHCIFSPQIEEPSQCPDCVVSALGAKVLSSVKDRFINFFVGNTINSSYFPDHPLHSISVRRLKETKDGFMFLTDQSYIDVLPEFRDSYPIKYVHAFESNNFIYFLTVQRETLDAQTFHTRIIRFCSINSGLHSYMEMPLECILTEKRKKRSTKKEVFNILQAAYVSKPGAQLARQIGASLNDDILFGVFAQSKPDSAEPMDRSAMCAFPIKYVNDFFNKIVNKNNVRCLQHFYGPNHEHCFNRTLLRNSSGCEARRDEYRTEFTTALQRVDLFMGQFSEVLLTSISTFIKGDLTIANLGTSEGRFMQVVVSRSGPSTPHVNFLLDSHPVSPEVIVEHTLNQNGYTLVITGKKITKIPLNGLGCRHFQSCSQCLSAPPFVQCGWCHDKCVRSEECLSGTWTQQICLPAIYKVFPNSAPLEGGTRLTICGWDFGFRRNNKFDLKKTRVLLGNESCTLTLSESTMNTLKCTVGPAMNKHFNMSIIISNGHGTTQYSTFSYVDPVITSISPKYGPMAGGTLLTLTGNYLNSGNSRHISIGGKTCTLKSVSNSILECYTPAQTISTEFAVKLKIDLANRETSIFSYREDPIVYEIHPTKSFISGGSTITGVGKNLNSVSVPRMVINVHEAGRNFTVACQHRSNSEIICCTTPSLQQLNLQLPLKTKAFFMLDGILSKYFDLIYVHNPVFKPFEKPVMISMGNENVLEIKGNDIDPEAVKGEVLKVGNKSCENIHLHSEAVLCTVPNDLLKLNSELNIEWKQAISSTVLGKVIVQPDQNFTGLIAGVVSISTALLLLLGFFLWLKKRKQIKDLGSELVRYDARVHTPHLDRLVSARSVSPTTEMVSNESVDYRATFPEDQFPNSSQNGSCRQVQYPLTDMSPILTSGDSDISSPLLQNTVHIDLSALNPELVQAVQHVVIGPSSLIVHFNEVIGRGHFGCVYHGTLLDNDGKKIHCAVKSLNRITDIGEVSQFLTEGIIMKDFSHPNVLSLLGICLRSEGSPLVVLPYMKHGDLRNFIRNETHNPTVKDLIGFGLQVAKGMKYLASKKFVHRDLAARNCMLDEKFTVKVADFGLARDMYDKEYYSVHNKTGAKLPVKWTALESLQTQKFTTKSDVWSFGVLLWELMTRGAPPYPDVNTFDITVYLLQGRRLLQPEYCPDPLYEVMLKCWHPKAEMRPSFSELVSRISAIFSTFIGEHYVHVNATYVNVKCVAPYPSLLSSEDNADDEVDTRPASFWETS

CSF1R = target: T3, CSF1R (Homo sapiens, UniProt P07333); assay: KINOMEscan ScanTK; format: binding
T3 construct: purchased Eurofins DiscoverX KINOMEscan (scanTK)

EPHA4 = target: T4, EPHA4 (Homo sapiens, UniProt P54764); assay: KINOMEscan ScanTK; format: binding
T4 construct: purchased Eurofins DiscoverX KINOMEscan (scanTK)
T4 sequence (P54764 20-986): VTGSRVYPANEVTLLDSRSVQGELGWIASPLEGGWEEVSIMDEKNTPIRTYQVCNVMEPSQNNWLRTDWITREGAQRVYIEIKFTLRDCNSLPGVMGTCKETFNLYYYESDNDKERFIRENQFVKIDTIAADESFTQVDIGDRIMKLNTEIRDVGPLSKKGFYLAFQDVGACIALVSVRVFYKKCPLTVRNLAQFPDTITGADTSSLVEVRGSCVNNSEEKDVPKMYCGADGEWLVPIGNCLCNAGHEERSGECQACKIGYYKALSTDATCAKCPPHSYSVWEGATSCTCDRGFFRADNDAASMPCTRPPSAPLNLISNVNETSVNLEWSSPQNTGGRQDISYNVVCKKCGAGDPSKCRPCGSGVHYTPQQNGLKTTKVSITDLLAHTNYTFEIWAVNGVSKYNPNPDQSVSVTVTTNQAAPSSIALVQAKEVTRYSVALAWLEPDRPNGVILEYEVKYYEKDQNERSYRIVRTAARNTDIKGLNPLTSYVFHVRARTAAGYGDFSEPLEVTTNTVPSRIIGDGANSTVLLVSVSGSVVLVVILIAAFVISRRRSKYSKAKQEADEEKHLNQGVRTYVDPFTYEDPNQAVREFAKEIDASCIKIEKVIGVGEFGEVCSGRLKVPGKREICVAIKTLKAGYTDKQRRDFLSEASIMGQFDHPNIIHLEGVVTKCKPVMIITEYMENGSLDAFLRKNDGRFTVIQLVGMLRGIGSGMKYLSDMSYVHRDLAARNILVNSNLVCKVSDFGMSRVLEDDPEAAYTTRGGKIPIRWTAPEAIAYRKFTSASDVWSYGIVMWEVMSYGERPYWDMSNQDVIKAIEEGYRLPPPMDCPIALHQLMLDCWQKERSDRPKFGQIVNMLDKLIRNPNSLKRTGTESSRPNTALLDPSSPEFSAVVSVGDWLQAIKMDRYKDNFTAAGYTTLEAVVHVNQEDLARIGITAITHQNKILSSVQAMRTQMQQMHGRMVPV

TNK2 = target: T5, TNK2 (Homo sapiens, UniProt Q07912); assay: KINOMEscan ScanTK; format: binding
T5 construct: purchased Eurofins DiscoverX KINOMEscan (scanTK)

YES = target: T6, YES (Homo sapiens, UniProt P07947); assay: KINOMEscan ScanTK; format: binding
T6 construct: purchased Eurofins DiscoverX KINOMEscan (scanTK)

ALK(L1196M) = target: T7, ALK(L1196M) (Homo sapiens, UniProt Q9UM73, L1196M); assay: KINOMEscan ScanTK; format: binding
T7 construct: purchased Eurofins DiscoverX KINOMEscan (scanTK)
T7 sequence (Q9UM73 19-1620 L1196M): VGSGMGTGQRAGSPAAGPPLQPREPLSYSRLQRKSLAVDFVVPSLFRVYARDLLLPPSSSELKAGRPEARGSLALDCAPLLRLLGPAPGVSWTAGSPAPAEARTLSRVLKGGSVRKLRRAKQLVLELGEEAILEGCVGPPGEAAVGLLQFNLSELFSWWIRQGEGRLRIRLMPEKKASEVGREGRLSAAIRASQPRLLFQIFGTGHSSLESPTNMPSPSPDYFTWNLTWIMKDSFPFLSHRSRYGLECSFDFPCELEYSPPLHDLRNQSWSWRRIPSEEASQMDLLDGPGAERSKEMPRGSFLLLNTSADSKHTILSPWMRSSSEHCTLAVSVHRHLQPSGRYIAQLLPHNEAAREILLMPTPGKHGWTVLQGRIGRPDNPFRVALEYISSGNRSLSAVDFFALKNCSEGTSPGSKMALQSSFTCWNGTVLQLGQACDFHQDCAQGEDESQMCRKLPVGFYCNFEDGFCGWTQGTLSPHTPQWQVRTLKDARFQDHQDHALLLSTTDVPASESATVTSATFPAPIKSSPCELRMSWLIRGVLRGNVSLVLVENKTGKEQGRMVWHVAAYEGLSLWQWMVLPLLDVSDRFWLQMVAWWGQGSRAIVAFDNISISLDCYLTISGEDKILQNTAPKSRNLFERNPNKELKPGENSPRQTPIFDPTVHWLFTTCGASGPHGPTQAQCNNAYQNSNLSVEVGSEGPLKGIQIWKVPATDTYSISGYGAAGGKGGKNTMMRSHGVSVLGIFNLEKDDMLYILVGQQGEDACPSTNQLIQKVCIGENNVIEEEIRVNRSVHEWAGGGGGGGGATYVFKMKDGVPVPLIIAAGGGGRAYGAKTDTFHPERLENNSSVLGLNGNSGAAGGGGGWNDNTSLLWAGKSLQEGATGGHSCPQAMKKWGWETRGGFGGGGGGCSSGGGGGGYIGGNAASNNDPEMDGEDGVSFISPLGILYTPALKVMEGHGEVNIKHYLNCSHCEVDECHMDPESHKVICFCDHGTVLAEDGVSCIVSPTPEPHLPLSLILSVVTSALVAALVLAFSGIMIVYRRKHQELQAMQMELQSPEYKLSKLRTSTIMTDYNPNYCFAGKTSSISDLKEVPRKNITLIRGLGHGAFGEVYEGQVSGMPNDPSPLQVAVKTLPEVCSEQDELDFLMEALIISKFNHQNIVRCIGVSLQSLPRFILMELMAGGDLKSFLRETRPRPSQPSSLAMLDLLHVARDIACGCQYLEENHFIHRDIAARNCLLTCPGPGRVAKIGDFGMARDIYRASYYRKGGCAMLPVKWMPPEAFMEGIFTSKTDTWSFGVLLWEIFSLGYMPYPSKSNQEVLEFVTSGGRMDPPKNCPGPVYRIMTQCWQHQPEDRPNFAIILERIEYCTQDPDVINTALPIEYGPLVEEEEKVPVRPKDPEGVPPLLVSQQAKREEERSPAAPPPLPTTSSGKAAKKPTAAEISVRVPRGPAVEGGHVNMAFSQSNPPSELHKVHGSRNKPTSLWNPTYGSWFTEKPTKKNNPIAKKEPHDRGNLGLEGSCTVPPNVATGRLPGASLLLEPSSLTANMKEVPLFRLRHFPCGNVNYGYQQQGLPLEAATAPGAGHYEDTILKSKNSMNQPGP

[1] = target: T8, ABL1(T315I)-nonphosphorylated (Homo sapiens, UniProt P00519, T315I); assay: KINOMEscan ScanTK; format: binding
T8 construct: purchased Eurofins DiscoverX KINOMEscan (scanTK)

SYK = target: T9, SYK (Homo sapiens, UniProt P43405); assay: KINOMEscan ScanTK; format: binding
T9 construct: purchased Eurofins DiscoverX KINOMEscan (scanTK)

EGFR(T790M) = target: T10, EGFR(T790M) (Homo sapiens, UniProt P00533, T790M); assay: KINOMEscan ScanTK; format: binding
T10 construct: purchased Eurofins DiscoverX KINOMEscan (scanTK)
T10 sequence (P00533 25-1210 T790M): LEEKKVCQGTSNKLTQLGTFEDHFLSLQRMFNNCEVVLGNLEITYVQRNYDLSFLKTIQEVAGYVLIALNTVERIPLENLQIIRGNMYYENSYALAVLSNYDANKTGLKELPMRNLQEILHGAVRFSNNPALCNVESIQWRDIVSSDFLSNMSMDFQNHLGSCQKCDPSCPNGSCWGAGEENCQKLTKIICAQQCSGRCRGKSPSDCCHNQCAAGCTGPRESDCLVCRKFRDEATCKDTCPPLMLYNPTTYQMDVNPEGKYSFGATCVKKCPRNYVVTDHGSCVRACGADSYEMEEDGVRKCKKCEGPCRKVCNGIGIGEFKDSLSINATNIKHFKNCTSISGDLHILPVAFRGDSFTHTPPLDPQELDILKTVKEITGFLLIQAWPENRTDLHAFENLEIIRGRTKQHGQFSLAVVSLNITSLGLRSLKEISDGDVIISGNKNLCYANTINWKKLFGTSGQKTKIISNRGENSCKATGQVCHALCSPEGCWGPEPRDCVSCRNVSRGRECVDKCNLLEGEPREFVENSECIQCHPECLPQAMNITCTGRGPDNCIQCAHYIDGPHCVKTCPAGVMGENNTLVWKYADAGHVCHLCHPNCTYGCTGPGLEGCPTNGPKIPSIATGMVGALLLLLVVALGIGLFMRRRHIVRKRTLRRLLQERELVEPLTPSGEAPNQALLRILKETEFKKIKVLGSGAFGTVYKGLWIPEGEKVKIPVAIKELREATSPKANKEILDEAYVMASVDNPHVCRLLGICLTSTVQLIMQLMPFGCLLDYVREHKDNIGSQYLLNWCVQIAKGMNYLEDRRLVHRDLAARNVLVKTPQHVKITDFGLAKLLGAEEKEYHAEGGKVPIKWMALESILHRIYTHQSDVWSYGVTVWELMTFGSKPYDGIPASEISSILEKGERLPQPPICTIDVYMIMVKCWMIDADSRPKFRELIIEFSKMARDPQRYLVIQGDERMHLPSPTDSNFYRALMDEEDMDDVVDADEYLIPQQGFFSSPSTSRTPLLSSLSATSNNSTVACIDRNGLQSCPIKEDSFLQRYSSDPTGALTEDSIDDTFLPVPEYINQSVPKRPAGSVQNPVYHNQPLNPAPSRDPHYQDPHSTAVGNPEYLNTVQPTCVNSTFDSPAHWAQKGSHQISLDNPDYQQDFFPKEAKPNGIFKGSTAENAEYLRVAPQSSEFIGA

LTK = target: T11, LTK (Homo sapiens, UniProt P29376); assay: KINOMEscan ScanTK; format: binding
T11 construct: purchased Eurofins DiscoverX KINOMEscan (scanTK)

BTK Y223 phosphorylation = assay: Immunoblotting, anti-IgM-induced signaling in OCI-LY7 cells; settings: 500 nM, 1 h
BTK, full length (2–659) = BTK, full length (2–659) (Homo sapiens, UniProt Q06187); assay: PhosphoSens enzymatic IC50 (AssayQuant); format: biochemical; settings: for IC50: 1 nM BTK, 1.0 mM ATP
Source text: (§1) Biochemical enzymatic IC50 data were generated by AssayQuant Technologies (Marlborough, MA) using the PhosphoSens Platform. […] Reaction rate versus log [inhibitor concentration] data were fitted to the four-parameter logistic equation [drawing 1]

[2] = target: T12, EGFR, cytoplasmic domain (669–1210) (Homo sapiens, UniProt P00533); assay: PhosphoSens enzymatic IC50 (AssayQuant); format: biochemical; settings: no preincubation
T12 construct: GST (N); purchased Carna Biosciences
Source text: as §1

Row | difference in % of control versus compound Ib at 1 µM (EPHB1; @1000nM) | remaining binding at 1 µM (EPHB1; @1000nM, read-out: %Control) | remaining binding at 1 µM (EPHB1; read-out: %Control @1000nM) | remaining binding at 1 µM (MET(M1250T); @1000nM, read-out: %Control) | remaining binding at 1 µM (MET(M1250T); read-out: %Control @1000nM) | difference in %Control versus compound Ib at 1 µM (CSF1R; @1000nM) | remaining binding at 1 µM (CSF1R; @1000nM, read-out: %Control) | remaining binding at 1 µM (CSF1R; read-out: %Control @1000nM) | %Control difference from compound Ib at 1 µM (EPHA4; @1000nM) | remaining binding at 1 µM (EPHA4; @1000nM, read-out: %Control) | remaining binding at 1 µM (EPHA4; read-out: %Control @1000nM) | remaining binding at 1 µM (TNK2; @1000nM, read-out: %Control) | remaining binding at 1 µM (TNK2; read-out: %Control @1000nM) | remaining binding at 1 µM (YES; @1000nM, read-out: %Control) | remaining binding at 1 µM (YES; read-out: %Control @1000nM) | difference in % of control vs compound Ib at 1 µM (ALK(L1196M); @1000nM) | remaining binding at 1 µM (ALK(L1196M); @1000nM, read-out: %Control) | remaining binding at 1 µM (ALK(L1196M); read-out: %Control @1000nM) | difference in % of control versus compound Ib at 1 µM ([1]; @1000nM) | remaining binding at 1 µM ([1]; @1000nM, read-out: %Control) | SMILES | also measured
1 | 1% | 91% | 91% | 96% | 96% | 16% | 96% | 96% | 9% | 100% | 100% | 94% | 94% | 25% | 25% | -23% | 77% | 77% | -9% | 84% | CCOC(=O)c1cnc(S(C)(=O)=O)nc1N1CCC[C@@H](n2nc(-c3ccc(Oc4ccccc4)cc3)c3c(N)ncnc32)C1 [Compound 8c, Ethyl (R)-4-(3-(4-Amino-3-(4-phenoxyphenyl)-1H-pyrazolo[3,4-d]pyrimidin-1-yl)piperidin-1-yl)-2-(methylsulfonyl)pyrimidine-5-carboxylate] | remaining binding at 1 µM ([1]; read-out: %Control @1000nM): 84%; difference in %Control versus compound Ib at 1 µM (SYK; @1000nM): 9%; remaining binding at 1 µM (SYK; @1000nM, read-out: %Control): 100%; remaining binding at 1 µM (SYK; read-out: %Control @1000nM): 100%; difference in % of control versus compound Ib at 1 µM (EGFR(T790M); @1000nM): 72.5%; remaining binding at 1 µM (EGFR(T790M); @1000nM, read-out: %Control): 73%; remaining binding at 1 µM (EGFR(T790M); read-out: %Control @1000nM): 73%; remaining binding at 1 µM (LTK; @1000nM, read-out: %Control): 100%; remaining binding at 1 µM (LTK; read-out: %Control @1000nM): 100%; anti-IgM-induced BTK Y223 phosphorylation (BTK Y223 phosphorylation): selectively reduced BTK Y^223 phosphorylation
2 | 3% | 93% | 93% | 88% | 88% | 12% | 92% | 92% | 9% | 100% | 100% | 96% | 96% | 8.1% | 8.1% | -5% | 95% | 95% | -11% | 82% | Cc1cnc(S(C)(=O)=O)nc1N1CCCC(n2nc(-c3ccc(Oc4ccccc4)cc3)c3c(N)ncnc32)C1 (stereo not shown) [Compound 8a, 1-(1-(5-Methyl-2-(methylsulfonyl)pyrimidin-4-yl)piperidin-3-yl)-3-(4-phenoxyphenyl)-1H-pyrazolo[3,4-d]pyrimidin-4-amine] | IC50 (BTK, full length (2–659); 0 min preincubation IC50 (nM), 0 min preincubation): 6 nM; IC50 (BTK, full length (2–659); 60 min preincubation IC50 (nM), 60 min preincubation): 0.31 nM; fold change, 1 nM BTK (BTK, full length (2–659); IC50 0 min vs 60 min preincubation): 19.6; 0 min IC50 (nM), 3 nM EGFR [2]: none of the compounds, 8a, 8b, or 8d, exhibited measurable inhibition; IC50 [2]: > 1000 nM; remaining binding at 1 µM ([1]; read-out: %Control @1000nM): 82%; difference in %Control versus compound Ib at 1 µM (SYK; @1000nM): -7%; remaining binding at 1 µM (SYK; @1000nM, read-out: %Control): 84%; remaining binding at 1 µM (SYK; read-out: %Control @1000nM): 84%; difference in % of control versus compound Ib at 1 µM (EGFR(T790M); @1000nM): 69.5%; remaining binding at 1 µM (EGFR(T790M); @1000nM, read-out: %Control): 70%; remaining binding at 1 µM (EGFR(T790M); read-out: %Control @1000nM): 70%; remaining binding at 1 µM (LTK; @1000nM, read-out: %Control): 93%; remaining binding at 1 µM (LTK; read-out: %Control @1000nM): 93%

From paper PMC11345841, “Exploring 2-Sulfonylpyrimidine Warheads as Acrylamide Surrogates for Targeted Covalent Inhibition: A BTK Story” (Journal of Medicinal Chemistry, 2024)
